Where no end group is shown, it is not given here. 4MPA = not defined here
Tested on: SARS-CoV-2 Delta variant
Assay type: in vivo, hamster
Conditions: 6 h exposure, 4 hamsters

GAICHPVFCPRRYKQIGTCGLPGTKCCKKP-4MPA (cysteine pairing not given here; reading uncertain; also: printed as GAICHPVFCPRRYKQIGTCGLPGTKCCKKP-4MPA) [Peptide 4H30]
transmission to naïve contact hamsters: 25%
